We go through 12 compounds from ChEMBL document CHEMBL5143621, “Design, synthesis, and biological evaluation of β-carboline 1,3,4-oxadiazole based hybrids as HDAC inhibitors with potential antitumor effects” (Bioorg Med Chem Lett, 2022).

In series [1] the test system is HCT-116. Kind of series: Antiproliferative activity against human HCT-116 cells assessed as inhibition of cell proliferation incubated for 72 hrs by MTT assay. The following applies: HCT-116, 72 h. Format: functional, cell-based. In general terms: Tetrazolium dyes change colour on reduction, which living cells bring about.
The target in series [2] is Histone deacetylase 1 (Homo sapiens, UniProt Q13547). Kind of series: Inhibition of HDAC1 (unknown origin).
Histone deacetylase 1, sequence (Q13547 whole entry): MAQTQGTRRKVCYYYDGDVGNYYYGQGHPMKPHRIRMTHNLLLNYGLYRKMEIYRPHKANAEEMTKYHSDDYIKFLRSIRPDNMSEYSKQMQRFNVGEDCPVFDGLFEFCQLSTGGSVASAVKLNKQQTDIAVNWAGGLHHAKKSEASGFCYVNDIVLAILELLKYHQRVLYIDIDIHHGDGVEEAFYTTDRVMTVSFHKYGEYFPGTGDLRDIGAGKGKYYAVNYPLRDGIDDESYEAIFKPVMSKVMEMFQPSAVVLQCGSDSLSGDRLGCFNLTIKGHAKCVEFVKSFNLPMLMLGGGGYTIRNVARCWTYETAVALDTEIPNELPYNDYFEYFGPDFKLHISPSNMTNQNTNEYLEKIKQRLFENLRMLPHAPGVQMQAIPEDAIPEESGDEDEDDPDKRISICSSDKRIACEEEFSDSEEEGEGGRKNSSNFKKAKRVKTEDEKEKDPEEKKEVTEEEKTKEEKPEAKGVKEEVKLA
Series [3] addresses Histone deacetylase 2 (Homo sapiens, UniProt Q92769). Kind of series: Inhibition of HDAC2 (unknown origin).
Series [4] deals with Histone deacetylase 3 (Homo sapiens, UniProt O15379). Put plainly: Inhibition of HDAC3 (unknown origin).
Histone deacetylase 3, sequence (O15379 whole entry): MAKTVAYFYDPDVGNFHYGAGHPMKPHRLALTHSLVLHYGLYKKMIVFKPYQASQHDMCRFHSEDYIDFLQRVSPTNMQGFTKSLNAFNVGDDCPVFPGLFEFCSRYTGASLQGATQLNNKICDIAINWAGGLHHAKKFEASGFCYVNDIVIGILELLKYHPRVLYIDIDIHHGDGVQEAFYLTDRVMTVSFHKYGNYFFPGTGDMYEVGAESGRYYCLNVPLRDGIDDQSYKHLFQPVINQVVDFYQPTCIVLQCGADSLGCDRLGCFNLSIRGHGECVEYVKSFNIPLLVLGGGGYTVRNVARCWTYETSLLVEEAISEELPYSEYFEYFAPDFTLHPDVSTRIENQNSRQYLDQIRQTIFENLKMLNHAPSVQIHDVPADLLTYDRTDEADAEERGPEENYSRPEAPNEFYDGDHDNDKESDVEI
The target of series [5] is T1, Protein deacetylase HDAC6 (Homo sapiens, UniProt Q9UBN7).
T1 sequence (Q9UBN7 whole entry): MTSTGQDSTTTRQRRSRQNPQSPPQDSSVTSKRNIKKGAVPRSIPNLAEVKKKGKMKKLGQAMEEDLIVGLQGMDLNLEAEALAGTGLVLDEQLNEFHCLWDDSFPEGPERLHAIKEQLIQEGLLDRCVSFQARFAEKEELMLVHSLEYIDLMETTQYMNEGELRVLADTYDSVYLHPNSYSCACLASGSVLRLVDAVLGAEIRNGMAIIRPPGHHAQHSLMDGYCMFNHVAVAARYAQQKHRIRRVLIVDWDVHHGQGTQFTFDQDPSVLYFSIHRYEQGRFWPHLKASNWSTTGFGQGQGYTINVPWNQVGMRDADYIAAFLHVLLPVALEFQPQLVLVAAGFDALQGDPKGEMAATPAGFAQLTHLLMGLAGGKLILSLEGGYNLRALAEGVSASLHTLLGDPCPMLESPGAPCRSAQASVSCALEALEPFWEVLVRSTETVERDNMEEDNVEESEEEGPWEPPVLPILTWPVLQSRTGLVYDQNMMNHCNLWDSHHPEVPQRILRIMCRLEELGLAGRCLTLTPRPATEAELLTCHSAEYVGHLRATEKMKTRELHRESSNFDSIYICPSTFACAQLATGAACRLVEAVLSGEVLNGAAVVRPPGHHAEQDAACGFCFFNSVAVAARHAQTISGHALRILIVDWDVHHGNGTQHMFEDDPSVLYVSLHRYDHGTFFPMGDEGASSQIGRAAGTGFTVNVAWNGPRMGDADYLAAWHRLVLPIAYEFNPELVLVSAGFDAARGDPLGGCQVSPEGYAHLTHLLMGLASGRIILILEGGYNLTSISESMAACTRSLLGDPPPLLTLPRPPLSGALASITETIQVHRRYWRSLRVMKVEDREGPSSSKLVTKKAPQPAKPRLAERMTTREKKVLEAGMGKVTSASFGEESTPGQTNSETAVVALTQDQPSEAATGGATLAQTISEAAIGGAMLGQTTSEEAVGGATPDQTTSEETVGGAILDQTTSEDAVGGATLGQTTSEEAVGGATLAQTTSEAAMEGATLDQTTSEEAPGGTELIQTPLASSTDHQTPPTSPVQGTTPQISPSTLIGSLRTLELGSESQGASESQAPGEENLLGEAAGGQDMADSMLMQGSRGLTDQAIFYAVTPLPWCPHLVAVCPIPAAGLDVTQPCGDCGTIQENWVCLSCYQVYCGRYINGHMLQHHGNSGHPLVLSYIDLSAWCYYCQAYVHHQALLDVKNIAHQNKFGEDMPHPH
Put plainly: Inhibition of HDAC6 (unknown origin).

Series [6] addresses T2, Histone deacetylase 8 (Homo sapiens, UniProt Q9BY41).
T2 sequence (Q9BY41 whole entry): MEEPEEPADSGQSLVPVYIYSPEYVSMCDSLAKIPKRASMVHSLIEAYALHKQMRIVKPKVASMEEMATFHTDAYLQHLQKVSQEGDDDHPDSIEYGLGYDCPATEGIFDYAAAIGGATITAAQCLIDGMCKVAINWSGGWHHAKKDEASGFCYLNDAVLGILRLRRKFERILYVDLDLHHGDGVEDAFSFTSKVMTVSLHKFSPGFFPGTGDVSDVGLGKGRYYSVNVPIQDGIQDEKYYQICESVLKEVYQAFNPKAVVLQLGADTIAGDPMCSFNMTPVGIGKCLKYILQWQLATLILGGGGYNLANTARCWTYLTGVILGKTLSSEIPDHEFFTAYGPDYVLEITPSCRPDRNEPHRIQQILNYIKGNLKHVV
Kind of series: Inhibition of HDAC8 (unknown origin).

For series [7], the system named is A549. Put plainly: cells. The class given is functional, cell-based. The following applies: Homo sapiens, A549, 72 h.
Description: Antiproliferative activity against human A549 cells assessed as inhibition of cell proliferation incubated for 72 hrs by MTT assay
Series [8] relates to MCF7. Put plainly: cells. The class given is functional, cell-based. The following applies: Homo sapiens, MCF7, 72 h.
Description: Antiproliferative activity against human MCF7 cells assessed as inhibition of cell proliferation incubated for 72 hrs by MTT assay
Series [9] deals with SW480. Kind of series: cells. Format: functional, cell-based. The following applies: Homo sapiens, SW480, 72 h.
Description: Antiproliferative activity against human SW480 cells assessed as inhibition of cell proliferation incubated for 72 hrs by MTT assay
The test system of series [10] is HCT-116. Kind of series: Induction of apoptosis in human HCT-116 cells assessed as increase in number of brilliant blue apoptotic cells at 125 to 500 nM incubated for 48 hrs by Hoechst 33342 staining based fluorescence microscopic analysis. The class given is functional, cell-based. The following applies: dose 125-500 nM.
The subject of series [11] is HCT-116. Kind of series: Inhibition of colony formation in human HCT-116 cell incubated for 48 hrs by crystal violet staining based analysis. Format: functional. The following applies: dose 125-500 nM, DDE = dose-dependent effect.
Series [12] concerns HCT-116. Put plainly: Induction of apoptosis in human HCT-116 cells at 125 to 500 nM incubated for 48 hrs by AnnexinV-FITC/PI staining based flow cytometry. The class given is functional, cell-based. The following applies: dose 125-500 nM.
In series [13] the test system is HCT-116. Put plainly: Inhibition of cell migration in human HCT-116 cells incubated for 48 hrs by wound healing scratch assay. The class given is functional, cell-based. The following applies: dose 125-500 nM, DDE = dose-dependent effect.
Series [14] in a line: in vitro. The following applies: human, L02 cells.
Description: Cytotoxicity against human L02 cells assessed as inhibition of cell proliferation incubated for 72 hrs by MTT assay

Calls of active or inactive are those of the source. The calls are words filed in the database; no cut-off is given here. Bounds are passed on as bounds.

Histone deacetylase 2, sequence (Q92769 whole entry): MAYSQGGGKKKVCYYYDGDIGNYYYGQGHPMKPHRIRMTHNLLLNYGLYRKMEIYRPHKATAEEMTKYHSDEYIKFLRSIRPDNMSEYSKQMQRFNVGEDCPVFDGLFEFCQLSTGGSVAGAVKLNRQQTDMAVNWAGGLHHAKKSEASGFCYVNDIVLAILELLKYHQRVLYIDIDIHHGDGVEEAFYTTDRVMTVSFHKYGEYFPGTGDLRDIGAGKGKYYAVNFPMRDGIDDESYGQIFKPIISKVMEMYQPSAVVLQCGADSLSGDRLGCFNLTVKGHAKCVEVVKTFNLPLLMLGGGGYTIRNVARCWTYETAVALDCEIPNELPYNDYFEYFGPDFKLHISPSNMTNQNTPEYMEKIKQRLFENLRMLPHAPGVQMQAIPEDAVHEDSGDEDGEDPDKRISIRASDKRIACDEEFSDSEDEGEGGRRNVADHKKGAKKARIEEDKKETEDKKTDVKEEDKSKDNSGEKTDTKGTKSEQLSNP

With `O=C(CCCc1nnc(-c2cc3c([nH]c4ccccc43)c(-c3ccccc3)n2)o1)NO`, in series [1], the IC50 came to 7180 nM.
Regarding `COc1cc(-c2nc(-c3nnc(CCCC(=O)NO)o3)cc3c2[nH]c2ccccc23)cc(OC)c1OC`, the IC50 in series [1] amounted to 1850 nM.
As to `O=C(CCc1nnc(-c2cc3c([nH]c4ccccc43)c(-c3ccccc3)n2)o1)NO`, the IC50 in series [1] is more than 10000 nM.
For `O=C(CCCCc1nnc(-c2cc3c([nH]c4ccccc43)c(-c3ccc(C(F)(F)F)cc3)n2)o1)NO`, the IC50 in [1] was 173 nM; in series [2], 2.2 nM; in [3], 2.2 nM; in [4] it was 3.4 nM; in series [5], 6 nM; in series [6] it was more than 600 nM. Also, the figures for the IC50 in series [7], in [8] and in series [9] were 1740 nM, 695 nM and 382 nM, respectively. The result in series [10] and in series [12] was Active. The inhibition result in [11] and in series [13] was “Dde” in each case. The IC50 at 72 h in series [14] is more than 10000 nM.
Turning to `O=C(CCCCc1nnc(-c2cc3c([nH]c4ccccc43)c(-c3ccccc3)n2)o1)NO`, the concentration for half-maximal inhibition (IC50) was 247 nM in series [1], 1.2 nM in series [2], less than 5000 nM in series [7] and 3760 nM in series [8].
For the compound `O=C(CCCc1nnc(-c2cc3c([nH]c4ccccc43)c(-c3ccc(C(F)(F)F)cc3)n2)o1)NO`, the IC50 in series [1] was 1360 nM.
`O=C(NO)c1ccc(-c2nnc(-c3cc4c([nH]c5ccccc54)c(-c4ccc(C(F)(F)F)cc4)n3)o2)cc1`: the IC50 in series [1] turned out to be 9400 nM.
As for `O=C(CCc1nnc(-c2cc3c([nH]c4ccccc43)c(-c3ccc(C(F)(F)F)cc3)n2)o1)NO`, the IC50 in [1] was 2310 nM.
Consider `Nc1ccccc1NC(=O)c1ccc(-c2nnc(-c3cc4c([nH]c5ccccc54)c(-c4ccc(C(F)(F)F)cc4)n3)o2)cc1`, for which the values for the IC50 in [1] and in series [2] were more than 10000 nM and more than 600 nM, respectively.
For the compound `COc1cc(-c2nc(-c3nnc(CCC(=O)NO)o3)cc3c2[nH]c2ccccc23)cc(OC)c1OC`, the IC50 in [1] came out at 6970 nM.
Take `COc1cc(-c2nc(-c3nnc(-c4ccc(C(=O)NO)cc4)o3)cc3c2[nH]c2ccccc23)cc(OC)c1OC`: the IC50 in series [1] is more than 10000 nM.
`COc1cc(-c2nc(-c3nnc(CCCCC(=O)NO)o3)cc3c2[nH]c2ccccc23)cc(OC)c1OC`: the IC50 is 190 nM in [1]; 1.4 nM in series [2]; 1.2 nM in series [3]; 3.6 nM in [4]; 7.3 nM in [5]; more than 600 nM in series [6]. The IC50 in [7] was found to be 1340 nM; in series [8], 541 nM.

Usually IC50 stands for the concentration at which inhibition is half-maximal.
